The source of these data is US20090286831A1, “VR1 Receptor Ligands and u-Opioid Receptor Ligands for the Treatment of Pain” (priority 2006, published 2009).

By Ki is commonly meant the equilibrium dissociation constant of an inhibitor or competing ligand from its target. The term IC50 denotes the concentration needed to halve the response being measured. Low readings indicate inhibition by little substance, high ones a need for much substance.

Assay [1] concerns the target T1, vanilloid receptor 1 (VR1/TRPV1) (Homo sapiens, UniProt Q8NER1).
T1 construct: expressed in transfected cells; host or cells: CHO K1 cells (ECACC), stably transfected
Kind of assay: FLIPR capsaicin assay. Format: cell-based, human or rat. The settings on record: functional Ki, capsaicin 100 nM, VR1-transfected CHO K1 cells, modified Cheng-Prusoff; read-out: f(Ki) (VR1). From the text:
(§1) The agonist or antagonist effect of substances can be determined at the vanilloid receptor 1 (VR1/TRPV1) of the human and rat species with the assay described below. Accordingly, the Ca^2+ influx through the channel is quantified by means of a Ca^2+-sensitive dye (Fluo-4, Molecular Probes Europe BV, Leiden, The Netherlands) in the fluorescent imaging plate reader (FLIPR, Molecular Devices, Sunnyvale, USA).
(§2) Chinese hamster ovary cells (CHO K1 cells, ECACC, England) are stably transfected with human or rat VR1 cDNA. For functional studies these cells are plated onto poly-D-lysine-coated black 96-hole plates with a clear base (BD Biosciences, Heidelberg, Germany) in a density of 25 000 cells/cavity. The cells are incubated overnight at 37° C. with 5% CO2 in culture medium (nutrient mixture Ham's F12, Gibco Invitrogen GmbH, Karlsruhe, Germany) with 10% vol. FBS (foetal bovine serum, Gibco Invitrogen GmbH, Karlsruhe, Germany) and 18 μg/ml of L-proline (Gibco Invitrogen GmbH, Karlsruhe, Germany). On the following day, the cells are laden with 2 μM Fluo-4 and 0.01% vol. Pluronic F127 (Molecular Probes Europe BV, Leiden, The Netherlands) in HBSS buffer (Hank's buffered saline solution, Gibco Invitrogen GmbH, Karlsruhe, Germany) for 30 min at 37° C. The plates are then washed 3 times in HBSS buffer and after further incubation for 15 minutes at room temperature are placed in the FLIPR for the Ca^2+ measurement. In this case, the Ca^2+-dependent fluorescence is measured before and after the addition of substances (λex=488 nm, λem=540 nm). Quantification occurs as a result of the measurement of the highest fluorescence intensity (FC, fluorescence counts) over time.
The FLIPR protocol consists of 2 substance additions. Test substances (10 μM) are firstly pipetted onto the cells and the Ca^2+ influx is compared to the control (capsaicin 10 μM). This gives the specification in % activation in relation to the Ca^2+ signal after adding 10 μM of capsaicin. After 5 minutes incubation 100 nM of capsaicin are applied and the influx of Ca^2+ likewise determined. Desensitising agonists and antagonists lead to a suppression of the Ca^2+ influx. Inhibition values [%] are calculated in comparison to the maximum achievable inhibition with a saturating concentration of […] or another reference antagonist. The test substance is added in different concentrations to determine the IC50 and functional Ki value ((f)Ki). Triple determinations (n=3) are conducted and these are repeated in at least one further independent experiment (N>=2). A capsaicin dose action curve is generated to incorporate the thus determined EC50 values into the associated (f)Ki determination. EC50/IC50 values are calculated using ‘Prism4’ software from GraphPad Software™ or with XLfit4™ (ID Business Solutions Ltd.). (f)Ki values are calculated in accordance with the modified Cheng-Prusoff equation (Cheng, Prusoff; Biochem. Pharmacol. 22, 3099-3108, 1973). Testing for non-specific inhibition of the fluorescence as a result of the substances is conducted by activating wild type CHO K1 cells incubated with the same test substances with ATP (10 μM final concentration).

Assay [2] has as its target T2, human recombinant μ-opioid receptor (Homo sapiens, UniProt P35372).
T2 construct: expressed in transfected cells; host or cells: CHO-K1 cells (membrane preparation)
Put plainly: Ki value at the μ-opioid receptor (Experiment 4). Type of assay: binding.

Another assay deals with rats. Kind of assay: Tail-flick (hot beam) test in rats. Type of assay: in vivo, rat. The settings on record: dosage 30 mg/kg i.v. The method, then:
Sprague Dawley rats (140-160 g body weight) were used for the following animal models. Sprague Dawley rats (140-160 g body weight) from a commercial breeder (Janvier, Genest St. Isle, France) were used. The animals were kept under standard conditions: light-dark rhythm (06:00 to 18:00 h light, 18:00 to 06:00 h dark), room temperature 19-23° C., relative air humidity 45-65%, air exchange 19 times per hour, air movement <0.2 m/s, free choice of tap water and standard feed, Macrolon Type 4 cages with 5 animals per cage. The solutions of the test substances and/or vehicles (10% […], 5% Cremophor EL, 5% glucose) were administered intravenously.
The analgesic efficacy of the test compounds was examined in the hot beam (tail flick) test in rats using the method of D'Amour and Smith (J. Pharm. Exp. Ther. 1941, 72, 74-79). The time from switching on the lamp (8V/50 W) to the sudden flicking away of the tail from the hot beam (pain latency) was measured by means of a semiautomatic apparatus (tail-flick Analgesiemeter Type 50/08/1.bc, Labtec, Dr. Hess, Germany). The lamp intensity was adjusted before conducting the experiments so that the time from switching on the lamp to the sudden flicking away of the tail (pain latency) amounted to 3-5 seconds in untreated animals. The lamp was automatically switched off after 12 seconds to avoid tissue damage to the rat's tail. The pain latency was measured 10, 20, 40 and 60 min after intravenous administration. The analgesic effect was determined as increase in pain latency (% MPE) according to the following formula: […]
In this case, T0 is the latency time before and T1 the latency time after substance application, T2 is the maximum exposure time (12 sec). Results of the analgesia study in the tail-flick test in rats:
The following experiments of Example 2 relate to binding studies and the analgesic efficacy of the compounds with dual mode of action according to the invention. The experiments comprise the determination of the (f)Ki value at the TPRV1 receptor, the Ki value at the μ-opioid receptor and the hypothermia assay in mice. The tail-flick test for the compounds [1], [4], [7] and [10] according to the invention was conducted in a similar manner to the above-described method (cf. Example 1, experiment 1).

The next assay deals with male NMRI mice. Put plainly: Hypothermia assay in mice (capsaicin-induced hypothermia). Format: in vivo, mouse. The settings on record: dosage 3 mg/kg p.o., capsaicin 3 mg/kg i.p. The method, then: The hypothermia assay was conducted on male NMRI mice (weight 25-35 gram). The animals were kept in standardised conditions: light/dark rhythm (6:00 to 18:00 h light phase, 18:00 to 6:00 h dark phase), room temperature 19-22° C., relative air humidity 35-70%, air exchange 15 times per hour, air movement <0.2 m/sec. The animals received standard feed (ssniff R/M-Haltung, ssniff Spezialdiäten GmbH, Soest, Germany) and tap water. Water and feed were withdrawn during the test. All the animals were used only once in the test. […] The acute application of capsaicin (VR-1 agonist) causes a drop in core body temperature in rats and mice via a stimulation of heat sensors. Only specific active VR-1 receptor antagonists can antagonise capsaicin-induced hypothermia. In contrast, hypothermia induced by morphine is not antagonised by VR-1 antagonists. This model is therefore suitable for identifying substances with VR-1 antagonist properties via the effect on the body temperature.
A digital thermometer (Thermalert TH-5, physitemp, Clifton N.J., USA) is used for measuring the core body temperature. The measurement sensor is inserted into the rectum of the animals in this case. As an individual base value the body temperature is measured twice in each animal at an interval of approximately half an hour. A group of animals (n=6 to 10) then received an intraperitoneal (i.p.) application of capsaicin of 3 mg/kg and vehicle (control group). Another group of animals received the substance to be tested (i.v. or p.o.) and additionally capsaicin (3 mg/kg) i.p. The test substance was applied i.v. 10 min or p.o. 15 minutes before the application of capsaicin. Then, the body temperature was measured 7.5, 15 and 30 min after capsaicin application (i.v.+i.p.) or 15, 30, 60, 90 and 120 min after capsaicin application (p.o.+i.p.). In addition, one animal group was treated only with test substance and one group was treated only with vehicle. The antagonist effect is calculated as a percentage reduction in the capsaicin-induced hypothermia.

The target of a further assay is T3, human VR1 (Homo sapiens, UniProt Q8NER1).
T3 construct: expressed in transfected cells; host or cells: CHO K1 cells (ECACC), stably transfected
Put plainly: FLIPR pH assay. Format: cell-based.
Source text: as §1, §2
In the pH assay, HBSS that now contains 60 mM MES instead of capsaicin is applied to human VR1-transfected CHO K1 cells (adjusted pH value of the addition solution is 4.95). Percentage inhibition and IC50 values are raised and evaluated as already described for the capsaicin test.

Marks after values point to notes of the source that are not given here.

T3 sequence (Q8NER1 whole entry): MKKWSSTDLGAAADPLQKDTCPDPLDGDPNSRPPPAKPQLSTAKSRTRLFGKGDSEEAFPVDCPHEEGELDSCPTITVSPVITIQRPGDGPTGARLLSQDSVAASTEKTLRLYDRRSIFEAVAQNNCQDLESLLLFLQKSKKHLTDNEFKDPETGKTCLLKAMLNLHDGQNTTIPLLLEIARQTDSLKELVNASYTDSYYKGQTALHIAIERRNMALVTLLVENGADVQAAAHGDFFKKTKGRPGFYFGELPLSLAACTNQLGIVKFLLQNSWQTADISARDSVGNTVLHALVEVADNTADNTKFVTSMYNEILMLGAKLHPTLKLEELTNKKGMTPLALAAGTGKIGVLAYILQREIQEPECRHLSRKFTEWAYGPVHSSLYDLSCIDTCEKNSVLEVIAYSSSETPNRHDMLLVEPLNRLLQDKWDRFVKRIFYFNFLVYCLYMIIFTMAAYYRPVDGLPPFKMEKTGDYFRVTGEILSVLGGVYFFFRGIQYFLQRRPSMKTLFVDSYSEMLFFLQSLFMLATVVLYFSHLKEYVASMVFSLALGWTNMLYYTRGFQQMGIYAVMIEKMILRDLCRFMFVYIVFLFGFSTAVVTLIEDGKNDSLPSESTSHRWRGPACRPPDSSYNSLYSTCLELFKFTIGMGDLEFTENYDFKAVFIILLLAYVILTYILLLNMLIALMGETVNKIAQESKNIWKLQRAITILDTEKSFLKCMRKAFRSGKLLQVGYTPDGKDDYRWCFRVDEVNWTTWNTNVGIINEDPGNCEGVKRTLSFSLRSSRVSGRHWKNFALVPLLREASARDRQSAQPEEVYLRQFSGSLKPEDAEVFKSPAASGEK
T1 sequence (Q8NER1 whole entry): as above
T2 sequence (P35372 whole entry): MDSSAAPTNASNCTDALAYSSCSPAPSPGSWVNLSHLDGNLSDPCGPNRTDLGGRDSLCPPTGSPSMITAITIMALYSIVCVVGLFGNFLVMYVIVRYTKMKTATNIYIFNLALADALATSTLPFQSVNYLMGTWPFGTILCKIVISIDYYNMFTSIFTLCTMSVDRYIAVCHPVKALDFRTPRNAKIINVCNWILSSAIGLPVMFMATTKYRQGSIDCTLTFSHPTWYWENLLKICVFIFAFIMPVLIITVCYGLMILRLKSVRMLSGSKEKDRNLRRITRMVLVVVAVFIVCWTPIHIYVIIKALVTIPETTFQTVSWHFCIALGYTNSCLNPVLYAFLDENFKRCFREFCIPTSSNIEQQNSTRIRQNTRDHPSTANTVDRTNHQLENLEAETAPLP

As to `CC(C(=O)NCc1ccc(C(F)(F)F)cc1N1CCC(c2cccs2)(N(C)C)CC1)c1ccc(NS(C)(=O)=O)c(F)c1` (centres unmarked) [[4], N-(2-(4-(dimethylamino)-4-(thiophen-2-yl)piperidin-1-yl)-4-(trifluoromethyl)benzyl)-2-(3-fluoro-4-(methylsulfonamido)phenyl)propanamide], the Ki in assay [1] stood at 0.005 µM; in assay [2], 0.061 µM. Further, the “Tail-Flick [% MPE]” value with rats was “n.e.^3), 37%^4) % MPE”. Besides, in the assay with male NMRI mice, the “Hypothermia Assay [% Inhibition]” value is 4%^1). This compound also gave a concentration for half-maximal inhibition (IC50) against human VR1 of 0.776 µM.
Turning to `CC(C(=O)NCc1ccc(C(F)(F)F)cc1N1CCC(Cc2ccccc2)(N(C)C)CC1)c1ccc(NS(C)(=O)=O)c(F)c1` (centres unmarked) [[7], N-(2-(4-benzyl-4-(dimethylamino)piperidin-1-yl)-4-(trifluoromethyl)benzyl)-2-(3-fluoro-4-(methylsulfonamido)phenyl)propanamide], the Ki is 0.0028 µM in assay [1] and 0.024 µM in assay [2]. Also, in the assay with rats, the “Tail-Flick [% MPE]” value was “n.e.^3), 100%^4) % MPE”. The “Hypothermia Assay [% Inhibition]” value in the assay with male NMRI mice is 59%^1). For the same compound, the IC50 at human VR1 is 0.434 µM.
In the case of `CC(C(=O)NCc1ccc(C(F)(F)F)cc1N1CCC(Cc2cccc(F)c2)(N(C)C)CC1)c1ccc(NS(C)(=O)=O)c(F)c1` (centres unmarked) [[10], N-(2-(4-(dimethylamino)-4-(3-fluorobenzyl)piperidin-1-yl)-4-(trifluoromethyl)benzyl)-2-(3-fluoro-4-(methylsulfonamido)phenyl)propanamide], the Ki turned out to be 0.0014 µM in assay [1] and 0.079 µM in assay [2]. For the same compound, the “Hypothermia Assay [% Inhibition]” value in the assay on male NMRI mice was found to be 29%^1). Further, at human VR1, the IC50 came out at 0.137 µM.
